In US12396968B2, “Mitofusin activators having an endocyclic-bonded carbonyl group and methods for use thereof” (priority 2022, dated 2025):

Experiments:
[1] = tested on: mitofusin; test: Dose-response of mitofusin agonist fusogenicity (mitochondrial aspect ratio) in Mfn1- or Mfn2-deficient MEFs; assay type: cell-based, mouse; settings: Mfn1-KO or Mfn2-KO MEFs, compounds overnight, mitochondrial aspect ratio indexed to maximal response of Compound 35
Method: Dose-response of mitofusin agonist fusogenicity was performed in Mfn1- or Mfn2-deficient MEFs (Mfn1-KO or Mfn2-KO MEFs) cultured at 37° C. and 5% CO2-95% air. Cells were seeded on day 1 in 6 well plates at a density of 2×10^4 cells per well and compounds added at 9 concentrations (0.5 nM-10 μM dissolved in DMSO) overnight. Mitochondria were then stained with MitoTracker Orange (200 nM; M7510; Invitrogen, Carlsbad, CA, USA). Nuclei were stained with Hoescht (10 μg/ml; Invitrogen, Thermo Fisher Scientific Cat: #H3570). Images were acquired at room temperature on a Nikon Ti Confocal microscope using a 60×1.3 NA oil-immersion objective in Krebs-Henseleit buffer (138 NaCl, […] pH: 7.2-7.5, and 1 mM CaCl2). Laser excitation was 549 nm with emission at 590 nm for MitoTracker Orange and excitation at 306 nm with emission at 405 nm for Hoescht. Images were analyzed using ImageJ and fusogenicity quantified as mitochondrial aspect ratio (length/width), and were indexed to the maximal response elicited by Compound 35, a known mitofusin activator. Response curves were interpolated using the sigmoidal model using Prism 8 software. EC50 values are reported as mean with 95% confidence limits for at least 3 independent experiments.
(§1) Further testing details for the MFN activity and PAMPA are provided in U.S. Patent Applications 2020/0345668 and 2020/0345669, incorporated herein by reference above.

[2] = Passive artificial blood brain barrier membrane permeability assay (PAMPA-BBB); assay type: in vitro ADME; settings: 10 μM compound, 1% porcine brain polar lipid extract/dodecane, room temperature
Method: Passive artificial blood brain barrier membrane permeability assay (PAMPA-BBB) were performed using 150 μL of 10 μM compounds (5% DMSO) added to PVDF membranes pre-coated with 5 μL of 1% brain polar lipid extract (Porcine)/dodecane mixture and incubated for 4 h at room temperature with shaking at 300 rpm. Donor and acceptor samples were analyzed by LC-MS/MS.
as §1

[3] = Liver microsome stability, human; assay type: in vitro ADME; settings: human liver microsomes 0.5 mg/ml, 1 uM compound; read-out: Liver Microsomes (t1/2, minutes) Human
Method: (§2) In vitro pharmacokinetic analyses were performed in duplicate using standard methods by WuXi AppTec Co. Ltd. (Shanghai, China). Plasma protein binding was measured by equilibrium dialysis; % bound=(1−[free compound in dialysate]/[total compound in retentate])×100. Plasma stability of 2 uM compounds in clarified freeze-thawed plasma was assessed by LC-MS/MS of supernatants after protein precipitation; 120 min data are reported for studies including 0, 10, 30, 60, and 120 min. Liver microsome stability of 1 uM compounds in liver microsomes (0.5 mg/ml) after 0, 5, 10, 20, 30, 60 min. incubation was assessed by LC/MS/MS of reaction extracts.

[4] = Plasma protein binding by equilibrium dialysis, mouse; assay type: in vitro ADME; settings: read-out: Plasma Protein Binding (Bound %) Mouse (converted)
Method: as §2

[5] = Liver microsome stability, mouse; assay type: in vitro ADME; settings: mouse liver microsomes 0.5 mg/ml, 1 uM compound; read-out: Liver Microsomes (t1/2, minutes) Mouse
Method: as §2

[6] = Plasma protein binding by equilibrium dialysis, human; assay type: in vitro ADME; settings: read-out: Plasma Protein Binding (Bound %) Human (converted)
Method: as §2

| EC50 [1] | Papp at 4 h, 10 μM [2] | half-life at 1 uM [3] | fraction unbound [4] | half-life at 1 uM [5] | fraction unbound [6] | Structure (SMILES) |
| --- | --- | --- | --- | --- | --- | --- |
| 30.5 nM | 145 ×10⁻⁶ cm/s | 103 min | 0.043 | 52.5 min | 0.049 | O=C(CCCCCCc1ccccc1)N1CCC(O)CC1 [Formula 7] |
| > 10000 nM | 180 ×10⁻⁶ cm/s | 60.6 min | 0.041 | 22.5 min | 0.034 | O=C(CCCCCCc1ccccc1)N1CCCC(O)C1 (centres unmarked) [Formula 8] |
| > 10000 nM | 96.1 ×10⁻⁶ cm/s | > 145 min | 0.088 | 82.4 min | 0.163 | O=C(CCCCCc1ccccc1)N1CCC(O)CC1 [Formula 9] |
| 12.2 nM | 143 ×10⁻⁶ cm/s | 64.5 min | 0.011 | 28 min | 0.014 | O=C(CCCCCCCc1ccccc1)N1CCC(O)CC1 [Formula 10] |
| 9.68 nM | 30.2 ×10⁻⁶ cm/s | > 145 min | 0.071 | 102 min | 0.107 | O=C(NCCCCCc1ccccc1)C1CCC(O)CC1 (centres unmarked) [Formula 26] |
| 5.3 nM | 86.8 ×10⁻⁶ cm/s | – | – | – | – | O=C(NC1CC1CCCCc1ccccc1)C1CCC(O)CC1 (centres unmarked) [Formula 30A] |
| 9 nM | 95.1 ×10⁻⁶ cm/s | 110 min | 0.029 | 224 min | 0.042 | O=C(NC1CC(CCCc2ccccc2)C1)C1CCC(O)CC1 (centres unmarked) [Formula 31A] |
| 10.5 nM | 5.43 ×10⁻⁶ cm/s | > 145 min | 0.279 | > 145 min | 0.535 | O=C(N[C@H]1C[C@@H]1OCCc1ccccc1)[C@H]1CC[C@H](O)CC1 [Formula 32A] |
| 10.8 nM | 2.28 ×10⁻⁶ cm/s | > 145 min | 0.361 | > 145 min | 0.626 | O=C(NC1CC1OCc1ccccc1)C1CCC(O)CC1 (centres unmarked) [Formula 33A] |
| 26.7 nM | 10.5 ×10⁻⁶ cm/s | > 145 min | 0.221 | > 145 min | 0.37 | O=C(NC1CC1OCCCc1ccccc1)C1CCC(O)CC1 (centres unmarked) [Formula 34A] |
